Assay results from PMC12287315 (Nature Communications, 2025).

Assays:
[1] = system: GPR139-SmBit / β-arrestin1; assay: NanoBiT β-arrestin1 recruitment assay; assay type: cell-based, human
[2] = system: GPR139-SmBit / β-arrestin2; assay: NanoBiT β-arrestin2 recruitment assay; assay type: cell-based, human
MHb neurons [3] = assay type: cell-based, mouse
GPR139 / Gα11 = assay: G protein BRET assay, Gα11 activation; assay type: cell-based, human; conditions: in words; for GPR139 coupling activity with Gα11: 10 µM
HiBit-GPR139 = assay: HiBiT-GPR139 surface abundance / internalization assay, HEK293T/17 cells; conditions: 40 μM Dyngo-4a, 10 μM PitStop 2, 4 mM MβCD applied 15 min before; 40 μM Dyn A13; in words
GPR139 / GαoA = assay: G protein BRET assay, GαoA activation; assay type: cell-based, human; conditions: 10 µM; in words
GPR139 [4] = biological target: T1, GPR139 (Homo sapiens, UniProt Q6DWJ6); assay: CalFluxVTN BRET calcium assay, GPR139-transfected HEK293T/17 cells; assay type: cell-based; conditions: in words
T1 sequence (Q6DWJ6 1-353): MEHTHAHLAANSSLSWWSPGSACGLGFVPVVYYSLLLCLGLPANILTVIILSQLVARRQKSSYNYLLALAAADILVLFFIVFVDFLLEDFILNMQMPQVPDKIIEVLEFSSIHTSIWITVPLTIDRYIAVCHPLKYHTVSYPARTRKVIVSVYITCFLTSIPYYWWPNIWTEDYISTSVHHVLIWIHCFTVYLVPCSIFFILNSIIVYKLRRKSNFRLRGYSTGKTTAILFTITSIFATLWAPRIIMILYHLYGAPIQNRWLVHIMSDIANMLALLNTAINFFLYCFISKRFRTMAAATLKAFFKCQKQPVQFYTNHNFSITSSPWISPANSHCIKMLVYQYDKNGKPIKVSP

GPR139 [5] = biological target: T1, GPR139; assay type: binding; conditions: in words
[6] = system: NAc neurons of Pdyn-Cre mice; assay type: cell-based, mouse; conditions: 10 μM JNJ-3792165; in words
MHb neurons [7] = assay: Live calcium imaging; assay type: cell-based, mouse; conditions: in words

C[C@H](NC(=O)CNC(=O)c1cccc(Cl)c1)c1ccccc1 [JNJ-63533054]
β-arrestin 1 recruitment to GPR139 [1]: did not observe recruitment of β-arrestins | β-arrestin 2 recruitment to GPR139 [2]: did not observe recruitment of β-arrestins

C=CCN1CC[C@]23c4c5ccc(O)c4O[C@H]2C(=O)CC[C@@]3(O)[C@H]1C5 [naloxone]
effect on Dyn A17 inhibition of neuronal firing (MHb neurons [3]): blocked | block of G protein activation by GPR139 (GPR139 / Gα11; 100 µM Naloxone, 5 µM Dyn A17): did not block G protein activation by GPR139

methyl-beta-cyclodextrin [MβCD]
effect on Dyn A13-mediated GPR139 internalization (HiBit-GPR139): had no effect

α-MSH
GPR139 coupling activity with GαoA (GPR139 / GαoA): did not show any significant coupling activity | GPR139 coupling activity with Gα11 (GPR139 / Gα11): did not show any significant coupling activity

adrenocorticotropic hormone (SYSMEHFRWGKPVGKKRRPVKVYPNGAEDESAEAFPLEF; Corticotropin; UniProt P01189 138-176, looked up) [ACTH]
CalFluxVTN signal compared to control cells not expressing GPR139 (GPR139 [4]; 10 μM, 3 independent experiments): significant signals | GPR139 coupling activity with GαoA (GPR139 / GαoA): did not show any significant coupling activity | GPR139 coupling activity with Gα11 (GPR139 / Gα11): did not show any significant coupling activity | competition with [3H]-JNJ-63533054 binding (GPR139 [5]): only modest binding

L-enk: inactive Leu-enkephalin as a negative control
GPR139 coupling activity with GαoA (GPR139 / GαoA): Neither did we observe G protein activation | GPR139 coupling activity with Gα11 (GPR139 / Gα11): Neither did we observe G protein activation | competition with [3H]-JNJ-63533054 binding (GPR139 [5]): no competition

Cc1cccc(NC(=O)c2cc(C)n(Cc3c(Cl)cccc3Cl)n2)c1 [JNJ-3792165]
effect of antagonist on peptide-induced Ca2+ responses (GPR139 [4]; 10 μM JNJ-3792165): blocked | effect on jGCaMP7s response to optogenetic stimulation [6]: completely abolished | effect on Dyn A17-induced Ca2+ response (MHb neurons [7]): completely blocked
